Experiments:
[1] = test system: normal NK cells expanded with K562-aAPC; assay: drug sensitivity score (DSS) (DSS units); higher = more sensitive; extreme values may be limits of the assay; conditions: 72 h; IL-2 2.5 ng/mL
Method: (§1)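 Drug sensitivity and resistance testing on K562-aAPC-expanded normal NK cells: 5 concentrations (10-fold steps over a 10,000-fold range), 72 h at 37 °C, viability by CellTiter-Glo normalised to DMSO and benzethonium chloride controls; DSS from the fitted curve.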

[2] = test system: normal primary NK cells, pool 1 (3 donors) (IL-2 2.5 ng/mL); assay: percent inhibition of viability; higher = more inhibition; conditions: 72 h
[3] = test system: normal primary NK cells, pool 3 (3 donors) (IL-2 2.5 ng/mL); assay: as above; conditions: 72 h
YT (IL-2 2.5 ng/mL) [4] = assay: as above; conditions: 72 h
[5] = test system: normal primary NK cells, pool 1 (3 donors), resting (IL-2 0 ng/mL); assay: as above; conditions: 72 h
NKL (IL-2 2.5 ng/mL) [6] = assay: as above; conditions: 72 h
IMC-1 (IL-2 20 ng/mL) [7] = assay: as above; conditions: 72 h
DERL-7 (IL-2 2.5 ng/mL) [8] = assay: as above; conditions: 72 h
NK-YS (IL-2 2.5 ng/mL) [9] = assay: as above; conditions: 72 h
KAI3 (IL-2 2.5 ng/mL) [10] = assay: as above; conditions: 72 h
NK-92 (IL-2 2.5 ng/mL) [11] = assay: as above; conditions: 72 h
KHYG-1 (IL-2 2.5 ng/mL) [12] = assay: as above; conditions: 72 h
[13] = test system: normal primary NK cells, pool 2 (3 donors) (IL-2 2.5 ng/mL); assay: as above; conditions: 72 h
SNK-6 (IL-2 2.5 ng/mL) [14] = assay: as above; conditions: 72 h
[15] = test system: normal primary NK cells, pool 1 (3 donors) (IL-2 2.5 ng/mL); assay: drug sensitivity score (DSS) (DSS units); higher = more sensitive; extreme values may be limits of the assay; conditions: 72 h
[16] = test system: normal primary NK cells, pool 3 (3 donors) (IL-2 2.5 ng/mL); assay: as above; conditions: 72 h
YT (IL-2 2.5 ng/mL) [17] = assay: as above; conditions: 72 h
[18] = test system: normal primary NK cells, pool 1 (3 donors), resting (IL-2 0 ng/mL); assay: as above; conditions: 72 h
NKL (IL-2 2.5 ng/mL) [19] = assay: as above; conditions: 72 h
IMC-1 (IL-2 20 ng/mL) [20] = assay: as above; conditions: 72 h
DERL-7 (IL-2 2.5 ng/mL) [21] = assay: as above; conditions: 72 h
NK-YS (IL-2 2.5 ng/mL) [22] = assay: as above; conditions: 72 h
KAI3 (IL-2 2.5 ng/mL) [23] = assay: as above; conditions: 72 h
NK-92 (IL-2 2.5 ng/mL) [24] = assay: as above; conditions: 72 h
KHYG-1 (IL-2 2.5 ng/mL) [25] = assay: as above; conditions: 72 h
[26] = test system: normal primary NK cells, pool 2 (3 donors) (IL-2 2.5 ng/mL); assay: as above; conditions: 72 h
SNK-6 (IL-2 2.5 ng/mL) [27] = assay: as above; conditions: 72 h
[28] = test system: normal NK cells expanded with K562-aAPC; assay: percent inhibition of viability; higher = more inhibition; conditions: 72 h, IL-2 2.5 ng/mL
Method: as §1

C[C@]12CC[C@@H]3c4ccc(O)cc4C[C@@H](CCCCCCCCC[S+]([O-])CCCC(F)(F)C(F)(F)F)[C@H]3[C@@H]1CC[C@@H]2O (some centres not stated) [Fulvestrant] (max concentration tested 1000 nM)
Conditions | drug sensitivity score
DERL-7 (IL-2 2.5 ng/mL) [21] | 0
IMC-1 (IL-2 20 ng/mL) [20] | 0.29
KAI3 (IL-2 2.5 ng/mL) [23] | 1.68
KHYG-1 (IL-2 2.5 ng/mL) [25] | 0
NK-92 (IL-2 2.5 ng/mL) [24] | 1.6
NK-YS (IL-2 2.5 ng/mL) [22] | 0.29
NKL (IL-2 2.5 ng/mL) [19] | 3.35
SNK-6 (IL-2 2.5 ng/mL) [27] | 0
YT (IL-2 2.5 ng/mL) [17] | 1.09
[1] | 0
[15] | 0
[16] | 0
[18] | 2.33
[26] | 0

percent inhibition of viability [%]
Conditions | 0.1 nM | 1 nM | 10 nM | 100 nM | 1000 nM
DERL-7 (IL-2 2.5 ng/mL) [8] | -6.65 | 4.87 | 1.14 | -1.33 | 2.61
IMC-1 (IL-2 20 ng/mL) [7] | -8.22 | -3.8 | -1.67 | -1.37 | 16.7
KAI3 (IL-2 2.5 ng/mL) [10] | -10.2 | -0.09 | 8.43 | 5.9 | 26.5
KHYG-1 (IL-2 2.5 ng/mL) [12] | -10.8 | -4.41 | -2.37 | -6.26 | 7.16
NK-92 (IL-2 2.5 ng/mL) [11] | -8.22 | -4.79 | -0.7 | -0.61 | 35.1
NK-YS (IL-2 2.5 ng/mL) [9] | -4.05 | -5.76 | -3.52 | 0.56 | 15.3
NKL (IL-2 2.5 ng/mL) [6] | -3.73 | 1.23 | 1.02 | 9.49 | 38.2
SNK-6 (IL-2 2.5 ng/mL) [14] | -16.9 | 6.87 | -25.7 | -23.9 | -13.9
YT (IL-2 2.5 ng/mL) [4] | -6.18 | 3.96 | 7.53 | -1.76 | 28.7
[2] | -3.4 | -8.82 | 2.76 | -0.05 | -2.99
[3] | 6.08 | 3.62 | 2.89 | -5.25 | -3.36
[5] | 7.52 | -6.84 | 15.3 | 7.9 | 31.3
[13] | -0.86 | -4.87 | 4.79 | 2.49 | 3.75
[28] | -7.38 | -10.5 | -9.28 | -0.53 | 6.13

N#Cc1ccc2[nH]c(O)c(-c3ccc(CN4CCOCC4)cn3)c2c1 [AZD-1080] (max concentration tested 10000 nM)
Conditions | drug sensitivity score
DERL-7 (IL-2 2.5 ng/mL) [21] | 4.59
IMC-1 (IL-2 20 ng/mL) [20] | 3.76
KAI3 (IL-2 2.5 ng/mL) [23] | 0.09
KHYG-1 (IL-2 2.5 ng/mL) [25] | 0.09
NK-92 (IL-2 2.5 ng/mL) [24] | 0
NK-YS (IL-2 2.5 ng/mL) [22] | 0.06
NKL (IL-2 2.5 ng/mL) [19] | 0.66
SNK-6 (IL-2 2.5 ng/mL) [27] | 0
YT (IL-2 2.5 ng/mL) [17] | 0.3
[1] | 0.28
[15] | 0
[16] | 0.08
[18] | 0
[26] | 0

percent inhibition of viability [%]
Conditions | 1 nM | 10 nM | 100 nM | 1000 nM | 10000 nM
DERL-7 (IL-2 2.5 ng/mL) [8] | 0.69 | -2.27 | -0.41 | -4.2 | 88.5
IMC-1 (IL-2 20 ng/mL) [7] | -6.19 | -4.98 | -2.55 | -0.22 | 68.7
KAI3 (IL-2 2.5 ng/mL) [10] | -2.28 | -5.79 | -9.97 | -21.1 | 16.1
KHYG-1 (IL-2 2.5 ng/mL) [12] | -9.77 | -11.1 | -7.95 | -10.2 | 15.1
NK-92 (IL-2 2.5 ng/mL) [11] | -5.77 | -9.41 | -10.5 | -11.2 | -14.5
NK-YS (IL-2 2.5 ng/mL) [9] | -7.92 | -9.02 | -9.19 | -12.2 | 14.6
NKL (IL-2 2.5 ng/mL) [6] | -2.17 | -4.57 | -11.4 | -10.8 | 26.2
SNK-6 (IL-2 2.5 ng/mL) [14] | -12 | -18.9 | -7.02 | -36.2 | -41.6
YT (IL-2 2.5 ng/mL) [4] | -4.13 | -5.06 | -2.61 | -7.8 | 19
[2] | -13.1 | 1.31 | -13.3 | -7.59 | -4.41
[3] | 6.51 | 4.2 | 7.89 | -9.63 | 14.5
[5] | -0.71 | 6.84 | 6.15 | -35.3 | -109
[13] | 3.02 | 1.99 | -1.33 | -5.26 | 2.97
[28] | -8.89 | -11.1 | -9.66 | -4.69 | 17.9

CCCCCCCCc1ccc(CCC(N)(CO)CO)cc1 [Fingolimod] (max concentration tested 10000 nM)
Conditions | drug sensitivity score
DERL-7 (IL-2 2.5 ng/mL) [21] | 7.91
IMC-1 (IL-2 20 ng/mL) [20] | 7.23
KAI3 (IL-2 2.5 ng/mL) [23] | 8.95
KHYG-1 (IL-2 2.5 ng/mL) [25] | 7.28
NK-92 (IL-2 2.5 ng/mL) [24] | 5.44
NK-YS (IL-2 2.5 ng/mL) [22] | 7.3
NKL (IL-2 2.5 ng/mL) [19] | 9.92
SNK-6 (IL-2 2.5 ng/mL) [27] | 7.85
YT (IL-2 2.5 ng/mL) [17] | 6.91
[1] | 8.27
[15] | 6.91
[16] | 5.22
[18] | 5.33
[26] | 8.2

percent inhibition of viability [%]
Conditions | 1 nM | 10 nM | 100 nM | 1000 nM | 10000 nM
DERL-7 (IL-2 2.5 ng/mL) [8] | 2.13 | -1.97 | 5.25 | 14.2 | 100
IMC-1 (IL-2 20 ng/mL) [7] | 1.04 | 3.67 | 4.21 | 10.1 | 101
KAI3 (IL-2 2.5 ng/mL) [10] | -5.76 | 2.36 | -1.55 | 21.5 | 101
KHYG-1 (IL-2 2.5 ng/mL) [12] | -0.79 | 1.01 | 0.07 | 10.2 | 102
NK-92 (IL-2 2.5 ng/mL) [11] | 1.29 | 3.97 | 7.28 | -5.13 | 103
NK-YS (IL-2 2.5 ng/mL) [9] | -1.37 | 0.63 | 1.86 | 10.4 | 102
NKL (IL-2 2.5 ng/mL) [6] | -3 | 6.8 | 9.6 | 30.1 | 101
SNK-6 (IL-2 2.5 ng/mL) [14] | 2.86 | 25.2 | 18.7 | 13.7 | 101
YT (IL-2 2.5 ng/mL) [4] | 1.77 | 4.72 | 1.22 | 8.33 | 101
[2] | -0.71 | -3.03 | -0.07 | 8.48 | 101
[3] | -17.7 | -6.84 | 5.41 | -5.02 | 100
[5] | 0.28 | -1.75 | -1.3 | -3.49 | 100
[13] | -5.21 | -6.36 | 4.8 | 16 | 101
[28] | -2.7 | -1.12 | 2.03 | 16.4 | 101

Reference: the supplement of paper PMC5908809
